97 molecules from PubChem BioAssay AID540268 (Broad Institute, 2011) can be followed below.

Active and inactive are the calls of the source. No rule for the calls is given here. Where only a bound is given, the exact number is not on record here.

By AC50 is commonly meant the concentration giving half of the maximal activity seen.

One assay is described as follows: reduced viability of parasite-Hsp90 expressing yeast – ATP luminescence, 48 h, cherry-picked samples, anti-malarial Hsp90 inhibitor project, dose response (AID 540268).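 As to activity change, negative = inhibition: 0% = neutral control wells and -100% = positive control wells.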 The settings on record: yeast expressing the parasite Hsp90, ATP luminescence.
For the molecule `O=C1C=CC(=O)N1c1ccc(OC(F)F)cc1`, the AC50 was 0.421 µM. The same measure, in the same setting: the same measure for `COc1ccc2c(c1)OC[C@H]1[C@H]2N2C(=O)c3cc(OC)ccc3NC(=O)[C@@]2(C)[C@H]1c1ccccc1`: 24.7 µM; for `CCN(CC)c1ccc(/C=C2/SC(=O)N(C(C)C)C2=O)o1`: 13.5 µM. Same read-out and setting: the same measure for `CC(=NNC(=S)N1CCN(C2CCCCCC2)CC1)c1ccccn1`: 3.95 µM; for `Oc1ccc(Cl)cc1/C=C/c1ccc2cccc(O)c2n1`: 2.66 µM.

Regarding `CCOc1ccc2nc(NC(=O)c3ccoc3C)sc2c1`, the AC50 is 6.99 µM. On the same count and under the same terms, with `Cc1ccc(CSc2nc3ccsc3c(=O)n2Cc2ccccn2)cc1` the figure was 9.62 µM; with `O=C(Nc1nc(-c2ccccc2)c(-c2ccccc2)o1)c1ccc(F)cc1`, 8.21 µM. The same measure, in the same setting: with `Cc1ccc(S(=O)(=O)Nc2ccc3ccccc3c2[N+](=O)[O-])cc1` the figure was 7.36 µM; with `CC(C)OC(=O)c1ccc(NCc2cc(O)ccc2O)cc1`, 6.94 µM; with `CC(C)OC(=O)c1ccc(NCc2cc(O)ccc2O)cc1Cl`, 24.1 µM. On the same count and under the same terms, with `Cc1ccc(N2C(=O)C3C4C=CC(CNC(=S)N5CCN(c6ccccc6)CC5)(O4)C3C2=O)cc1` (configuration not stated) the figure was 6.93 µM. Take `Cc1ccccc1CS(=O)(=O)c1nnc([C@H](Cc2ccccc2)NC(=O)OC(C)(C)C)o1`: the AC50 was 17.1 µM. As for `Clc1ccc(C(Cn2ccnc2)OCc2csc3c(Cl)cccc23)c(Cl)c1` (configuration not stated), the concentration at half-maximal activity (AC50) is less than 0.195 µM. Still for that read-out and setting: the same measure for `O=[N+]([O-])c1ccc(N=Nc2c(Cl)cc(O)cc2Cl)cc1`: 0.401 µM. The same measure, in the same setting: with `Cc1nnc(N=c2ssnc2Cl)o1` the figure was 1.03 µM; with `CC(C)N1C(=O)/C(=C\c2nc3ccccc3c(=O)[nH]2)c2ccccc21`, 6.47 µM. The same measure, in the same setting: the same measure for `O=C(Nc1nnc(SCc2ccc(F)cc2)s1)c1ccccn1`: 4.41 µM. On to `O=C(O)c1ccc(N/N=C/c2ccc(-c3cccc(Cl)c3)o2)cc1`, for which the half-maximal activity concentration (AC50) was 8.69 µM. The same measure, in the same setting: the same measure for `COc1ccc(OC)c(NC(=O)c2nc(S(=O)(=O)Cc3ccccc3)ncc2Cl)c1`: 4.3 µM; for `Cc1sc2nc(C3CC3)nc(SCC(=O)NCc3ccco3)c2c1C`: 7.33 µM; for `Cc1c(Cc2ccccc2)c(NCCN(C)C)n2c(nc3ccccc32)c1C#N`: 0.701 µM. Same read-out and setting: the same measure for `Oc1c(CN2CCCCC2)cc(Br)c2cccnc12`: 2.95 µM; for `CN(C)c1ccc(C=c2c3ccccc3n3c2cc(-c2ccccc2)[n+]3C)cc1`: 4.33 µM. On the same count and under the same terms, with `CCCCCCCCCCCCCCCC(=O)OC(CC(=O)O)C[N+](C)(C)C` (configuration not stated) the figure was 1.23 µM; with `Oc1ccccc1C1=NN(c2ccccc2)C(c2ccccc2)C1` (configuration not stated), 4.3 µM; with `O=[N+]([O-])c1ccc(C=Nc2ccc(Cl)c([N+](=O)[O-])c2)s1`, 2.13 µM. Regarding `COc1ccc(NC(=O)C2CCCN2S(=O)(=O)c2cccc3cccnc23)c(OC)c1` (configuration not stated), the half-maximal activity concentration (AC50) was 1.31 µM.

Take `O=C(c1ccc(-c2ccccc2)cc1)C1CCCN(C(=O)c2cncs2)C1` (configuration not stated): the concentration at half-maximal activity (AC50) was 2.72 µM.

Take `O=C(OC12CC3CC(CC(C3)C1)C2)c1ccc(NCc2cc(O)ccc2O)cc1`: the concentration at half-maximal activity (AC50) was 8.91 µM. For the molecule `CC1=CC(=O)C(C(C)C)=C/C1=N/OS(=O)(=O)c1ccccc1`, the AC50 is 3.09 µM. Regarding `O=C(C=Cc1cccc(O)c1)c1ccccc1O`, the half-maximal activity concentration (AC50) is 1.89 µM. The same measure, in the same setting: with `O=[N+]([O-])c1ccc(S(=O)(=O)c2cccc(C(F)(F)F)c2)nc1` the figure was 2.52 µM.

As to `O=C1/C(=C\c2ccc(Cl)c(Cl)c2)CN(C(=O)CCN2CCOCC2)C/C1=C/c1ccc(Cl)c(Cl)c1`, the half-maximal activity concentration (AC50) was 3.5 µM. The same measure, in the same setting: the same measure for `COc1ccc(NC(=O)CCC(=O)N/N=C/c2ccc([N+](=O)[O-])s2)cc1`: 3.33 µM; for `Cc1cc([N+](=O)[O-])c2ccccc2[n+]1[O-]`: less than 0.195 µM. On the same count and under the same terms, with `C=CCn1c(O)c(N=Nc2ccccc2O)c2ccccc21` the figure was 8.15 µM; with `Cc1ccc(NC(=S)NCC23C=CC(O2)C2C(=O)N(c4ccc(C)cc4)C(=O)C23)cc1` (configuration not stated), 8.61 µM; with `O=C(/C=C/c1ccccn1)c1cc(Br)ccc1O`, 1.01 µM. On to `C=CCn1c(C)cc(C(=O)CSc2nc3ccccc3c(=O)[nH]2)c1C`, for which the concentration at half-maximal activity (AC50) is 3.28 µM.

Take `Cc1cccc(C(=O)NC(=S)NNC(=O)Cc2ccccc2)c1`: the AC50 is 4.34 µM. On the same count and under the same terms, the same measure for `O=C(Oc1c(Cl)cc(Cl)c2cccnc12)c1ccco1`: 0.696 µM; for `O=C(/C=C/c1ccc(F)cc1)NC(=S)NNC(=O)c1cnccn1`: 2.71 µM. On the same count and under the same terms, with `CCOc1ccccc1N1CCN(C(=O)c2cccc(-c3ccc(O)cc3)c2)CC1` the figure was 5.08 µM; with `COc1ccc(C(C#N)=C2C=CC(=NO)C=C2)cc1`, 4.56 µM. The same measure, in the same setting: with `CCS(=O)(=O)Nc1cccc(-c2cc(-c3ccccc3)c3cc(C)ccc3n2)c1` the figure was 4.55 µM; with `CC(C)N=c1scc(-c2cccs2)n1/N=C/c1ccc(O)c(O)c1O`, 7.43 µM; with `CC(=NNC(=S)Nc1cccc(C)c1)c1ccccn1`, 4.3 µM.

Regarding `COc1ccc(S(=O)(=O)NC2CC3CCC2C3)cc1Br` (configuration not stated), the AC50 is 3.52 µM. Still for that read-out and setting: with `COc1cc(N(C)C)ccc1C=c1c2ccccc2n2c1cc(-c1ccccc1)[n+]2C` the figure was 7.55 µM; with `CCN(CC)S(=O)(=O)c1cccc(NC(=O)c2ccc(Br)cc2)c1`, 5.81 µM. Take `O=C1C=CC(=O)N1c1ccc2c(c1)Cc1cc(F)ccc1-2`: the AC50 was less than 0.195 µM. As to `O=C(O)/C=C/C(=O)c1ccc2c(c1)CCc1ccccc1-2`, the AC50 is 26.3 µM.

With `O=[N+]([O-])/C=C/c1ccc2c(ccn2Cc2ccccc2)c1`, the AC50 was 4.35 µM. As to `O=C(c1ccc2c(=O)n(C3CCCC3)c(=S)[nH]c2c1)N1CCc2ccccc21`, the AC50 was 6.25 µM. On the same count and under the same terms, the same measure for `CC1=CN2C(=N)/C(=C/c3ccc([N+](=O)[O-])o3)C(=O)N=C2S1`: 1.34 µM; for `Cc1ccc2nc(/C(C#N)=C\c3ccc([N+](=O)[O-])o3)[nH]c2c1`: less than 0.195 µM; for `O=C(Oc1c(Cl)cc(Cl)c2cccnc12)c1cccs1`: 4.26 µM.

Regarding `Cc1ccc(C(c2cc(Cl)c3cccnc3c2O)N2CCN(C)CC2)cc1` (configuration not stated), the half-maximal activity concentration (AC50) was 0.507 µM. The same measure, in the same setting: with `Cc1ccc(C(C[N+](=O)[O-])c2c(N)n(C)c(=O)n(C)c2=O)cc1` (configuration not stated) the figure was 3.33 µM; with `CCc1ccccc1NC(=O)c1cccc(Oc2ccc([N+](=O)[O-])cc2Cl)c1`, 4.12 µM; with `CCN1/C(=C/c2ccc3cc(C)ccc3[n+]2CC)Sc2cc(C)ccc21`, 5.54 µM. With `CCCCC(CC)CN=C(N)NC(N)=NCCCCCCN=C(N)NC(N)=NCC(CC)CCCC` (configuration not stated), the half-maximal activity concentration (AC50) is 4.34 µM. As to `CN1CCN(C(c2ccc(Br)cc2)c2cc(Cl)c3cccnc3c2O)CC1` (configuration not stated), the AC50 is 0.535 µM.

For the molecule `CCCCCCCCOC(=O)c1cc([N+](=O)[O-])c(Sc2ncnc3nc[nH]c23)c([N+](=O)[O-])c1`, the AC50 was 1.4 µM. Same read-out and setting: the same measure for `O=C1C=C(c2cccs2)C[C@H](c2ccccc2)[C@H]1n1nnc([N+](=O)[O-])n1`: 11.8 µM.

As for `CN(C)C(=S)SSC(=S)N(C)C`, the AC50 was 3.96 µM. Same read-out and setting: with `Cc1ccc2[nH]c(C)c(/C=N/Nc3nc4ccccc4s3)c2c1` the figure was 2.63 µM; with `O=C(N/N=C/c1ccccn1)c1cc(-c2ccc(Br)cc2)nc2ccccc12`, 5.33 µM; with `Cc1cc(/C=C2\SC(=S)N(C)C2=O)c(C)n1-c1ccc(O)cc1`, 8.33 µM.

With `OCCOCCn1c(C2CCCN2c2nc(-c3ccc(F)cc3)cs2)nc2cc(Cl)c(Cl)cc21` (configuration not stated), the AC50 is 6 µM. The same measure, in the same setting: with `COc1ccc(C(=O)COC(=O)c2cc([N+](=O)[O-])ccc2N2CCOCC2)c(OC)c1` the figure was 13.8 µM. With `Cc1cc2c(cc1C)CSC(c1c(O)ccc3ccccc13)SC2`, the AC50 is 4.26 µM. On the same count and under the same terms, with `COc1cccc(F)c1C(C[N+](=O)[O-])c1c(N)n(C)c(=O)n(C)c1=O` (configuration not stated) the figure was 4.3 µM; with `CC(C)(C)SCCNC(=O)c1ccc(Cl)c([N+](=O)[O-])c1`, 4.37 µM; with `CCc1ccc2c(c1)/C(=C/C(=O)c1cccs1)C(=O)N2`, 4.7 µM. The same measure, in the same setting: the same measure for `O=C(Nc1nnc(-c2ccc3c(c2)CCCC3)o1)c1ccc(Cl)cc1Cl`: 3.35 µM. On the same count and under the same terms, the same measure for `O=C(OCC(=O)C12CC3CC(CC(C3)C1)C2)c1ccc(O)cc1O`: 15.6 µM; for `COc1ccc(OC)c(N2C(=O)NC(=O)/C(=C\c3ccc([N+](=O)[O-])s3)C2=O)c1`: 5.48 µM. `C[C@@]12C(=O)Nc3ccc(F)cc3C(=O)N1[C@H]1c3ccccc3OC[C@@H]1[C@@H]2c1ccccc1`: the AC50 was less than 0.195 µM. Still for that read-out and setting: with `O=C(Nc1ccccc1N1CCOCC1)c1ccc([N+](=O)[O-])o1` the figure was 4.41 µM; with `NC(=Nc1nc(-c2ccccn2)cc2ccccc12)c1ccccn1`, 3.78 µM. On the same count and under the same terms, the same measure for `COc1ccc2c(c1)C=C(C(=O)NCc1ccc(Cl)cc1)CO2`: 4.21 µM; for `Cc1cc(C)c(S(=O)(=O)N2CCC(C(=O)NCc3ccc(Cl)cc3Cl)CC2)c(C)c1`: 0.835 µM; for `Oc1ccc(Cl)cc1Sc1cc(Cl)ccc1O`: 3.07 µM. Still for that read-out and setting: the same measure for `CCCCCCOc1ccc(N2C(=O)CC(N3CCC(C(=O)OCC)CC3)C2=O)cc1` (configuration not stated): 4.38 µM; for `COc1ccc([N+](=O)[O-])c(S(=O)(=O)c2ccc(Cl)cc2)n1`: 1.27 µM. Regarding `OC(CNCCC1C=Nc2ccccc21)Cn1c2ccc(Cl)cc2c2cc(Cl)ccc21` (configuration not stated), the half-maximal activity concentration (AC50) was 7.56 µM. The same measure, in the same setting: with `Cc1c(N=Cc2cc(Br)cc(Br)c2O)cccc1C(=O)O` the figure was 3.06 µM; with `O=c1c2ccccc2nnn1CSc1nnc(COc2ccc(Cl)cc2)n1Cc1ccco1`, 3.31 µM. Still for that read-out and setting: with `COc1ccc(-c2sc3ccccc3c2/C=C/c2ccncc2)cc1` the figure was 4.84 µM; with `O=S(=O)(Nc1nc2ccccc2nc1N1CCN(c2ccccn2)CC1)c1ccc(Cl)cc1`, 8.25 µM; with `F[B-](F)(F)c1cc2cc(Br)ccc2s1`, 6.2 µM.

For the molecule `Cc1cc(N=Nc2ccc3ccccc3c2)ccc1O`, the AC50 is 2.93 µM.

The assay is the same for the next values; noted with them: yeast expressing the parasite Hsp90, ATP luminescence, at 26 µM (top of the series).
As for `O=C(N/N=C/c1ccc([N+](=O)[O-])o1)c1sc2ccccc2c1Cl`, the activity change, negative = inhibition is 18.4% (inactive). Still for that read-out and setting: the same measure for `CC1(C)N=C(SCC(=O)Nc2ccc(Cl)cc2Cl)C(c2ccccc2)=N1`: 20.1% (inactive).

In the case of `O=C(CSc1ccc(-c2ccccn2)nn1)Nc1ccccc1`, the activity change, negative = inhibition is -18.1% (inactive).
